Test results taken from the supplement of paper PMC11061612.

Tests used:
[1] = tested on: SIMA (Neuroblastoma); assay: Bliss excess, mean over the matrix (fraction); higher = more synergy
Method in brief: (§1)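 After 24 hours at 37°C and 5% CO2 in 1536-well plates, cells in DMEM/F12 or RPMI plus 10% FBS received two-drug dose matrices for 72 hours. Viability came from CellTiter-Glo 2.0 luminescence and was scaled as inhibition, anchored at 0 by vehicle wells and at 1 by blank wells. Combination Emax is taken as the second-highest inhibition in the matrix, and Bliss excess as the observed combination effect less EA + EB − EA·EB, with EA and EB the single-agent effects.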

[2] = tested on: HCC-15 (Squamous Cell Lung Carcinoma); assay: combination Emax (second highest fraction inhibited in the dose matrix, 72 h); higher = more inhibition; extreme values may be limits of the assay
Method in brief: as §1

[3] = tested on: LU-139 (Small Cell Lung Carcinoma); assay: as above
Method in brief: as §1

[4] = tested on: Hs-633T (Other Solid Carcinomas); assay: as above
Method in brief: as §1

[5] = tested on: 639-V (Bladder Carcinoma); assay: as above
Method in brief: as §1

[6] = tested on: SIMA (Neuroblastoma); assay: as above
Method in brief: as §1

[7] = tested on: RT-112 (Bladder Carcinoma); assay: as above
Method in brief: as §1

[8] = tested on: SW626 (Colorectal Carcinoma); assay: as above
Method in brief: as §1

[9] = tested on: SK-OV-3 (Ovarian Carcinoma); assay: as above
Method in brief: as §1

[10] = tested on: NCI-H28 (Mesothelioma); assay: as above
Method in brief: as §1
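Wherever Bliss excess, mean over the matrix is given: after 72 h of two-drug dosing.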

Row | SMILES | Bliss excess [1] | combination Emax [2] | combination Emax [3] | combination Emax [4] | combination Emax [5] | combination Emax [6] | combination Emax [7] | combination Emax [8] | combination Emax [9] | combination Emax [10]
1 | Cc1c2c(nn1C)CSCc1cc(n(C)n1)CSc1cc(c3ccccc3c1)OCCCc1c(C(=O)O)n(C)c3c-2c(Cl)ccc13 [AZD5991] + C1CN(CCC1(C(=O)N[C@@H](CCO)C2=CC=C(C=C2)Cl)N)C3=NC=NC4=C3C=CN4 [Capivasertib] (first compound max 1 µM, 7x7, partner max 3 µM) | -0.0195 | 0.227 | 0.268 | 0.216 | 0.177 | 0.176 | 0.858 | 0.25 | 0.36 | 
2 | CC(=O)c1c(C)c2cnc(Nc3ccc(N4CCNCC4)cn3)nc2n(C2CCCC2)c1=O [Palbociclib] + Cc1c2c(nn1C)CSCc1cc(n(C)n1)CSc1cc(c3ccccc3c1)OCCCc1c(C(=O)O)n(C)c3c-2c(Cl)ccc13 [AZD5991] (first compound max 10 µM, 7x7, partner max 1 µM) |  | 0.247 | 0.25 | 0.519 | 0.269 |  | 0.568 | 0.336 | 0.179 | 0.413
3 | CC1(C)CCC(CN2CCN(c3ccc(C(=O)NS(=O)(=O)c4ccc(NCC5CCOCC5)c([N+](=O)[O-])c4)c(Oc4cnc5[nH]ccc5c4)c3)CC2)=C(c2ccc(Cl)cc2)C1 [Venetoclax] + C1CN(CCC1(C(=O)N[C@@H](CCO)C2=CC=C(C=C2)Cl)N)C3=NC=NC4=C3C=CN4 [Capivasertib] (first compound max 1 µM, 7x7, partner max 3 µM) |  | 0.232 | 0.31 | 0.177 | 0.283 |  | 0.192 | 0.161 | 0.353 | 0.216
4 | Cn1cnc2c(F)c(Nc3ccc(Br)cc3Cl)c(C(=O)NOCCO)cc21 [Selumetinib] + C=CCn1c(=O)c2cnc(Nc3ccc(N4CCN(C)CC4)cc3)nc2n1-c1cccc(C(C)(C)O)n1 [AZD1775] (first compound max 10 µM, partner max 1 µM) |  | 0.612 | 0.332 | 0.628 | 0.455 |  | 0.61 | 0.724 | 0.365 | 0.433
5 | CC1(C)CCC(CN2CCN(c3ccc(C(=O)NS(=O)(=O)c4ccc(NCC5CCOCC5)c([N+](=O)[O-])c4)c(Oc4cnc5[nH]ccc5c4)c3)CC2)=C(c2ccc(Cl)cc2)C1 [Venetoclax] + C=CCn1c(=O)c2cnc(Nc3ccc(N4CCN(C)CC4)cc3)nc2n1-c1cccc(C(C)(C)O)n1 [AZD1775] (first compound max 1 µM, partner max 1 µM) |  | 0.469 | 0.831 | 0.719 | 0.428 |  | 0.978 | 0.647 | 0.74 | 0.336
6 | COc1nnc2ccc(N3CCC(c4ccc(OCCN5CCN(C)C(=O)[C@H]5C)cc4)CC3)nn12 [AZD5153] + C[C@@H]1COCCN1C2=NC(=NC(=C2)C3(CC3)[S@](=N)(=O)C)C4=C5C=CNC5=NC=C4 [AZD6738] (first compound max 1 µM, 7x7, partner max 10 µM) |  | 0.513 | 0.947 | 0.912 | 0.813 |  | 0.737 | 0.798 | 0.481 | 0.659
7 | COc1cc2ncnc(Nc3ccc(F)c(Cl)c3)c2cc1OCCCN1CCOCC1 [Gefitinib] + CC(C)n1c(=O)n(C)c2cnc3cc(F)c(-c4ccc(OCCCN5CCCCC5)nc4)cc3c21 [AZD1390] (first compound max 10 µM, 7x7, partner max 0.3 µM) |  | 0.0725 | 0.0288 | 0.203 | 0.158 |  | 0.176 | 0.0985 | 0.285 | 0.346
8 | NC1(C(=O)N[C@@H](CCO)c2ccc(Cl)cc2)CCN(c2ncnc3[nH]ccc23)CC1 [Capivasertib] + COc1nnc2ccc(N3CCC(c4ccc(OCCN5CCN(C)C(=O)[C@H]5C)cc4)CC3)nn12 [AZD5153] (first compound max 10 µM, 7x7, partner max 1 µM) |  | 0.626 | 0.864 | 0.519 | 0.622 |  | 0.383 | 0.642 | 0.535 | 0.453
9 | Cc1c2c(nn1C)CSCc1cc(n(C)n1)CSc1cc(c3ccccc3c1)OCCCc1c(C(=O)O)n(C)c3c-2c(Cl)ccc13 [AZD5991] + Cc1cc2ncnn2cc1Nc1ncc2c(n1)n(C1CCOCC1)c(=O)n2C [AZD7648] (first compound max 1 µM, 7x7, partner max 10 µM) |  | 0.207 | 0.243 | 0.391 | 0.298 | 0.543 | 0.854 | 0.224 | 0.483 | 0.298
10 | Cn1cnc2c(F)c(Nc3ccc(Br)cc3Cl)c(C(=O)NOCCO)cc21 [Selumetinib] + CC(C)n1c(=O)n(C)c2cnc3cc(F)c(-c4ccc(OCCCN5CCCCC5)nc4)cc3c21 [AZD1390] (first compound max 10 µM, 7x7, partner max 0.3 µM) |  | 0.421 | 0.0318 | 0.433 | 0.238 |  | 0.353 | 0.562 | 0.238 | 0.262
11 | CC1(C)CCC(CN2CCN(c3ccc(C(=O)NS(=O)(=O)c4ccc(NCC5CCOCC5)c([N+](=O)[O-])c4)c(Oc4cnc5[nH]ccc5c4)c3)CC2)=C(c2ccc(Cl)cc2)C1 [Venetoclax] + CN(C)CCCOc1ccc(-c2ccc3ncc4c(c3c2)n(C2CCOCC2)c(=O)n4C)cn1 [AZD0156] (first compound max 1 µM, 7x7, partner max 1 µM) |  | 0.215 | 0.374 | 0.266 | 0.202 |  | 0.243 | 0.111 | 0.239 | 0.193
12 | NC1(C(=O)N[C@@H](CCO)c2ccc(Cl)cc2)CCN(c2ncnc3[nH]ccc23)CC1 [Capivasertib] + Cn1cnc2c(F)c(Nc3ccc(Br)cc3Cl)c(C(=O)NOCCO)cc21 [Selumetinib] (first compound max 10 µM, 7x7, partner max 10 µM) |  | 0.693 | 0.0716 | 0.633 | 0.366 |  | 0.475 | 0.65 | 0.473 | 0.404
13 | C[C@@H](c1ccc2nccn2c1)n1nnc2ncc(-c3cnn(C)c3)nc21 [Savolitinib] + Cc1c2c(nn1C)CSCc1cc(n(C)n1)CSc1cc(c3ccccc3c1)OCCCc1c(C(=O)O)n(C)c3c-2c(Cl)ccc13 [AZD5991] (first compound max 1 µM, 7x7, partner max 1 µM) |  | 0.124 | 0.126 | 0.12 | 0.21 |  | 0.602 | 0.221 | 0.112 | 0.155
14 | CC1(C)CCC(CN2CCN(c3ccc(C(=O)NS(=O)(=O)c4ccc(NCC5CCOCC5)c([N+](=O)[O-])c4)c(Oc4cnc5[nH]ccc5c4)c3)CC2)=C(c2ccc(Cl)cc2)C1 [Venetoclax] + Cn1cnc2c(F)c(Nc3ccc(Br)cc3Cl)c(C(=O)NOCCO)cc21 [Selumetinib] (first compound max 1 µM, 7x7, partner max 3 µM) |  | 0.438 | 0.307 | 0.228 | 0.27 |  | 0.304 | 0.507 | 0.137 | 0.142
15 | Cn1cnc2c(F)c(Nc3ccc(Br)cc3Cl)c(C(=O)NOCCO)cc21 [Selumetinib] + C[C@@H]1COCCN1C2=NC(=NC(=C2)C3(CC3)[S@](=N)(=O)C)C4=C5C=CNC5=NC=C4 [AZD6738] (first compound max 10 µM, 7x7, partner max 10 µM) |  | 0.503 | 0.053 | 0.748 | 0.464 |  | 0.555 | 0.681 | 0.32 | 0.471
16 | CC(=O)c1c(C)c2cnc(Nc3ccc(N4CCNCC4)cn3)nc2n(C2CCCC2)c1=O [Palbociclib] + CC1(C)CCC(CN2CCN(c3ccc(C(=O)NS(=O)(=O)c4ccc(NCC5CCOCC5)c([N+](=O)[O-])c4)c(Oc4cnc5[nH]ccc5c4)c3)CC2)=C(c2ccc(Cl)cc2)C1 [Venetoclax] (first compound max 10 µM, 7x7, partner max 1 µM) |  | 0.177 | 0.37 | 0.49 | 0.147 |  | 0.279 | 0.153 | 0.144 | 0.389
17 | Cc1nc(Nc2ncc(C(=O)Nc3c(C)cccc3Cl)s2)cc(N2CCN(CCO)CC2)n1 [Dasatinib] + CC(=O)Nc1cccc(-n2c(=O)n(C3CC3)c(=O)c3c(Nc4ccc(I)cc4F)n(C)c(=O)c(C)c32)c1 [Trametinib] (first compound max 2 µM, 7x7, partner max 1 µM) |  | 0.853 | 0.0497 | 0.939 | 0.466 |  | 0.584 | 0.849 | 0.392 | 0.721
18 | NC1(C(=O)N[C@@H](CCO)c2ccc(Cl)cc2)CCN(c2ncnc3[nH]ccc23)CC1 [Capivasertib] + CC(=O)c1c(C)c2cnc(Nc3ccc(N4CCNCC4)cn3)nc2n(C2CCCC2)c1=O [Palbociclib] (first compound max 10 µM, 7x7, partner max 10 µM) |  | 0.633 | 0.0872 | 0.707 | 0.299 |  | 0.415 | 0.348 | 0.417 | 0.425
19 | COc1nnc2ccc(N3CCC(c4ccc(OCCN5CCN(C)C(=O)[C@H]5C)cc4)CC3)nn12 [AZD5153] + Cc1c2c(nn1C)CSCc1cc(n(C)n1)CSc1cc(c3ccccc3c1)OCCCc1c(C(=O)O)n(C)c3c-2c(Cl)ccc13 [AZD5991] (first compound max 1 µM, 7x7, partner max 1 µM) |  | 0.535 | 0.91 | 0.631 | 0.653 |  | 0.922 | 0.704 | 0.413 | 0.465
20 | CS(=O)(=O)CCNCc1ccc(-c2ccc3ncnc(Nc4ccc(OCc5cccc(F)c5)c(Cl)c4)c3c2)o1 [Lapatinib] + C[C@@H](Oc1cc(-c2cnn(C3CCNCC3)c2)cnc1N)c1c(Cl)ccc(F)c1Cl [Crizotinib] (first compound max 10 µM, 7x7, partner max 10 µM) |  | 0.945 | 0.936 | 0.934 | 0.853 |  | 0.941 | 0.626 | 0.776 | 0.622
